Legend:
[1] = Serum levels after single dose IV application in rats, mass spectroscopy; format: in vivo; settings: 27.5 and 55 μg IV, 2 and 20 minutes
Description: COM 56 was diluted in saline-buffer to 100 μM and 200 μM in a volume of 200 μL. The probe was administered intravenously in rats. After 2 min and 20 min a blood probe was taken from the right carotid artery. The blood probes were centrifuged by 2500 g for 3 min and the supernatant, the serum component, were analysed by mass spectroscopy.

[2] = molecular target: T1, IKK-complex (Homo sapiens, UniProt O14920+O15111+Q9Y6K9); assay: Cellular IKK kinase assay: HeLa cells treated with compound, TNF alpha stimulation, IKK-complex immunoprecipitated with anti-NEMO-antibody, I kappaB peptide phosphorylation by alpha screen; format: cell-based
T1 construct: IKK-complex was immunoprecipitated with anti-NEMO-antibody; endogenous in cells; host or cells: HeLa
T1 sequence (O14920 whole entry): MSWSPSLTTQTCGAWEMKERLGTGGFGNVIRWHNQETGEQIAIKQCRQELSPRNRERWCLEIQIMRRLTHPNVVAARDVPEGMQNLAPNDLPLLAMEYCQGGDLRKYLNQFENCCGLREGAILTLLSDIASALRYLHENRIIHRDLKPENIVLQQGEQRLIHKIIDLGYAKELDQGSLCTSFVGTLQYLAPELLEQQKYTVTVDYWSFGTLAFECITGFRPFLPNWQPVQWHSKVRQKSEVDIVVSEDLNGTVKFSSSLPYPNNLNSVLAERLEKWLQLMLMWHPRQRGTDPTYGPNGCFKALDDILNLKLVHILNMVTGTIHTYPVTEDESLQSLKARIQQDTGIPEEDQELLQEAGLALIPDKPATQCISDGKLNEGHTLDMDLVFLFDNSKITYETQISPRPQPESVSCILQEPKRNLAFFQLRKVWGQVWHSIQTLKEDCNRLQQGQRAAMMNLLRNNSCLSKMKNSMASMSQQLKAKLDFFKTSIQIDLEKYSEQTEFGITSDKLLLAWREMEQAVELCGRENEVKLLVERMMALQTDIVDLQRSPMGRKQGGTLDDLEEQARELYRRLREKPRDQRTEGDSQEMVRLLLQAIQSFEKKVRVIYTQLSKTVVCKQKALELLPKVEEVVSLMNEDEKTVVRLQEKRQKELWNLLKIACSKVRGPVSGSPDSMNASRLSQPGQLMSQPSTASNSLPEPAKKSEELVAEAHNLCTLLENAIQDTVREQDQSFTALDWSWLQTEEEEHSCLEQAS
T1 sequence (O15111 whole entry): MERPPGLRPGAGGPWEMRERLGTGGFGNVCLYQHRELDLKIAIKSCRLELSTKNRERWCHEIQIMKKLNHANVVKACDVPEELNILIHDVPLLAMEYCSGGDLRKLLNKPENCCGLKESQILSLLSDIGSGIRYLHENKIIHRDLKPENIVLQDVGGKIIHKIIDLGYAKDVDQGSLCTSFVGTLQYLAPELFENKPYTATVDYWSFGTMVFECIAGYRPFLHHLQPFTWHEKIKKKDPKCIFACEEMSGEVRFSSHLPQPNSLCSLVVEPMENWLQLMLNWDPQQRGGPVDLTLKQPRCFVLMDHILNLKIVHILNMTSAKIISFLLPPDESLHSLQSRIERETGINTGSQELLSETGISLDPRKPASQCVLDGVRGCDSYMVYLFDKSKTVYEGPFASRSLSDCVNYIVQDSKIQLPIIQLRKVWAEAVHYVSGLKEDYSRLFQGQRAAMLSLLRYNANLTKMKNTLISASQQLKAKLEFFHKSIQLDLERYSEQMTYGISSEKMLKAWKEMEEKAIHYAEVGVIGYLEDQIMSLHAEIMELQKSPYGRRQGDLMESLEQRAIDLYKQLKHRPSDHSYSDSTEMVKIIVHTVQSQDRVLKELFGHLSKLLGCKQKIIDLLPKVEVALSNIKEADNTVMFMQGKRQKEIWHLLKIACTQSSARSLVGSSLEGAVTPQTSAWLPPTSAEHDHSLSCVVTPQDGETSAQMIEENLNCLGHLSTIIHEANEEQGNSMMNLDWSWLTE
T1 sequence (Q9Y6K9 whole entry): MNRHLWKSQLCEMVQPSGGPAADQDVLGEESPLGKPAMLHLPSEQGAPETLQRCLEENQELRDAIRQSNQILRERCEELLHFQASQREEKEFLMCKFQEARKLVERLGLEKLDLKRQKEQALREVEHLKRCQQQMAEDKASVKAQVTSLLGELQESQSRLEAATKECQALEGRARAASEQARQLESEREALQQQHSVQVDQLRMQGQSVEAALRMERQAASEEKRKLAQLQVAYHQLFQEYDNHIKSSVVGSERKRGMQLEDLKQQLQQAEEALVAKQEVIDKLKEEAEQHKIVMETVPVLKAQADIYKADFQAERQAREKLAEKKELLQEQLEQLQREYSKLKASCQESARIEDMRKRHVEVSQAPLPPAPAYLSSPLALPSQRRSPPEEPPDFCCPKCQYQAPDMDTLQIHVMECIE
Description: Kinase Assay Protocol: HeLa cells were maintained in Dulbecco's modified Eagle's medium (Invitrogen) supplemented with 10% fetal bovine serum, 2 mM L-glutamine, penicillin (50 units/ml) and streptomycin (50 μg/ml). 24 h before treatment with different compounds HeLa cells were plated at a density of 5×10^6 per well in 100-mm cell culture dishes to 90% confluences.
The cells were incubated with different drugs at the concentration indicated for 1 h, washed twice with PBS and stimulated with 20 ng/ml TNF alpha (Roche). After 7 min the cells were washed twice with ice cold PBS followed by scraping and transferring into a 1.5 ml microcentrifuge tube. After centrifugation by 2000 rpm for 2 min by 4° C. the PBS supernatant was removed and 200 μl Lyse-buffer (10 mM Hepes, pH 7.9, 0.1% NP40, 10 mM, 300 mM Sucrose, 10 mM KCl, 15 mM MgCl2, 1 mM DTT, 0.5 mM PMSF and antipain, aprotinin, leupeptin each 0.75 μg/ml (Sigma) was added to the pellet. The resuspended pellet was incubated on ice for 5 min and centrifuged at 13000 g for 30 s. The supernatant, cytosolic extract, was added to 200 μl TNT-buffer (200 mM NaCl, 20 mM Tris/HCl pH 7.5, 1% Triton X-100). Unspecific binding was blocked by incubation with 3 μg of normal rabbit IgG (Sigma) and 6 mg resuspended and prewashed Protein A Sepharose CI-4B (Pharmacia Biotech) for 30 min by 4° C. followed by immunoprecipitation for 1.5 h at 4° C. with 2 μg of anti-NEMO-antibody (Santa Cruz Biotechnology) and 6 mg resuspented and prewashed Protein A Sepharose CI-4B (Parmacia Biotech). […] 6.6 μl of detection-buffer (20 mM Hepes pH 7.5, 100 mM NaCl, 1% Tween, 0.1 mM BSA, 50 μg/ml Protein A-Acceptor beads, 250 μg/ml Streptavidin-Donor beads (both Perkin-Elmer), 4 nM anti-phospho-IKB antibody (Santa Cruz Biotechnology) was dispensed to each well. After incubation for 1.5 h the plate was measured by alpha screen reader (Perkin Elmer). […]

serum levels after single IV application [1]: considerable serum levels
serum levels after single IV application ([1]; listed as compound 56): positive serum probes
IC50 ([2]; HeLa cells, TNF alpha 20 ng/ml, alpha screen, n=4, read-out: IC50 for inhibition of IKK activity (phosphorylation of substrate peptide for I KappaB)): ~0.85 µM
potency to inhibit the IKK activity, higher than the other 73 family members ([2]; cellular assay with HeLa cells): 10 times
Compound: CCOC(=O)C1=C(C)N=c2s/c(=C/c3ccc(-c4cccc(C(=O)O)c4)o3)c(=O)n2C1c1ccc(Cl)cc1 (stereo not shown) [COM 56, 2-[5-(3-Carboxyphenyl)-furan-2-ylmethylene]-5-(4-chlorophenyl)-7-methyl-3-oxo-2,3-dihydro-5H-thiazolo[3,2-a]pyrimidine-6-carboxylic acid ethyl ester]

— US20060194819A1, “Activation specific inhibitors of nf-kb and method of treating inflammatory processes in cardio-vascular diseases” (PROCORDE GMBH, priority 2003, published 2006)
